Experimental findings from ChEMBL document CHEMBL3639236, “Nitrogen containing morphinan derivatives and the use thereof” (2015) are described below.

For assay [1], the target named is Kappa-type opioid receptor (Homo sapiens, UniProt P41145). The assay can be described thus: (§1) Radioligand Dose-Displacement Binding Assay: Radioligand dose-displacement binding assays for u-opioid receptors used 0.3 nM [3H]-diprenorphine (Perkin Elmer, Shelton, Conn.), with […] in a final volume of 500 ul binding buffer (10 mM MgCl2, 1 mM EDTA, 5% DMSO, 50 mM HEPES, pH 7.4). Reactions were carried out in the absence or presence of increasing concentrations of unlabeled naloxone. All reactions were conducted in 96-deep well polypropylene plates for 2 hours at room temperature. Binding reactions were terminated by rapid filtration onto 96-well Unifilter GF/C filter plates (Perkin Elmer, Shelton, Conn.), presoaked in 0.5% polyethylenimine using a 96-well tissue harvester (Perkin Elmer, Shelton, Conn.) followed by performing three filtration washes with 500 ul of ice-cold binding buffer. Filter plates were subsequently dried at 50 C. for 2-3 hours. BetaScint scintillation cocktail (Perkin Elmer, Shelton, Conn.) was added (50 ul/well), and plates were counted using a Packard Top-Counter.
Sequence of Kappa-type opioid receptor (P41145 whole entry): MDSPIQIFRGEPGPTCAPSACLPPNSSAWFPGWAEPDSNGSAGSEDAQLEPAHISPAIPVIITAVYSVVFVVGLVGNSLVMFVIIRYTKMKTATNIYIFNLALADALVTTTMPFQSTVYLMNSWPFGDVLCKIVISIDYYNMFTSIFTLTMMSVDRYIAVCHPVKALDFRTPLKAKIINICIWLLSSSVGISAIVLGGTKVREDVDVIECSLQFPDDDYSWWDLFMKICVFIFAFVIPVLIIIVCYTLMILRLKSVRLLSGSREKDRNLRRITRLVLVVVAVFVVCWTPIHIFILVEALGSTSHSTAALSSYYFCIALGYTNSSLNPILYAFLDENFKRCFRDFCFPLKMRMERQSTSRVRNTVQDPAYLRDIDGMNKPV

The next assay deals with Mu-type opioid receptor (Homo sapiens, UniProt P35372). The assay is described as §1.
Sequence of Mu-type opioid receptor (P35372 whole entry): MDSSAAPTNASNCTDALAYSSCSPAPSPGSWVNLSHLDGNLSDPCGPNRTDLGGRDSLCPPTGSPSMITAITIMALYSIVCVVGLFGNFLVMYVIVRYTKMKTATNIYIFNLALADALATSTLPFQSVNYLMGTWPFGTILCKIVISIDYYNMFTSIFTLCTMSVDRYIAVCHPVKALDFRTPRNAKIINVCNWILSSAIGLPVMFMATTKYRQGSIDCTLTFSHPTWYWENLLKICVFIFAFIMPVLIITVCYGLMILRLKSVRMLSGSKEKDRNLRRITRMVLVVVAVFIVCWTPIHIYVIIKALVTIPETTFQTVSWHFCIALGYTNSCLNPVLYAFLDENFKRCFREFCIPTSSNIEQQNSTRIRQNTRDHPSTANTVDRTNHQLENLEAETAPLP

Turning to `COc1ccc(CN2C[C@H]3[C@H]4Cc5ccc(OC)cc5[C@@]3(CCN4CC3CC3)CC2=O)cc1`, in assay [1], the Ki was found to be 411 nM.

`COc1ccc(CN2C=C3[C@H]4Cc5ccc(OC)cc5[C@@]3(CCN4CC3CC3)CC2=O)cc1`: the Ki stood at 13.1 nM in assay [1] and 218 nM on Mu-type opioid receptor.
